One assay deals with HCV replicon genotype 3a. Description: Cell-based HCV replicon assay, genotype 3a. The settings on record: Hepatitis C virus, 72 h, HCV replicon cells, replicon RNA by real time PCR on day 3, read-out: EC50 (nM) (gt3a). The protocol:
To measure cell-based anti-HCV activity of selected compounds of the present invention, replicon cells were seeded at 5000 cells/well in 96-well collagen I-coated Nunc plates in the presence of the test compound. Various concentrations of test compound, typically in 10 serial 2-fold dilutions, were added to the assay mixture, with the starting concentration ranging from 250 μM to 1 μM. The final concentration of DMSO was 0.5%, fetal bovine serum was 5%, in the assay media. Cells were harvested on day 3 by the addition of 1× cell lysis buffer (Ambion cat #8721). The replicon RNA level was measured using real time PCR (Taqman assay). The amplicon was located in 5B. The PCR primers were: 5B.2F, ATGGACAGGCGCCCTGA (SEQ. ID NO. 1); 5B.2R, […] (SEQ. ID NO. 2); the probe sequence was FAM-labeled CACGCCATGCGCTGCGG (SEQ. ID NO. 3). GAPDH RNA was used as endogenous control and was amplified in the same reaction as NS5B (multiplex PCR) using primers and VIC-labeled probe recommended by the manufacturer (PE Applied Biosystem). […] Alternatively, to quantitate the absolute amount of replicon RNA, a standard curve was established by including serially diluted T7 transcripts of replicon RNA in the Taqman assay. […]
(§1) HCV replicon assay data was calculated for genotypes 1a, 1b, 2a and 3a for selected compounds of the present invention using this method and is provided in the table below.
On the technique in general: In antiviral work, replicon cells carry a viral genome segment that copies itself.

Another assay deals with HCV replicon genotype 1a. Put plainly: Cell-based HCV replicon assay, genotype 1a. The conditions noted are these: Hepatitis C virus, 72 h, HCV replicon cells, replicon RNA by real time PCR on day 3, read-out: EC50 (nM) (gt1a). As to the method: (§2) To measure cell-based anti-HCV activity of selected compounds of the present invention, replicon cells were seeded at 5000 cells/well in 96-well collagen I-coated Nunc plates in the presence of the test compound. Various concentrations of test compound, typically in 10 serial 2-fold dilutions, were added to the assay mixture, with the starting concentration ranging from 250 μM to 1 μM. The final concentration of DMSO was 0.5%, fetal bovine serum was 5%, in the assay media. Cells were harvested on day 3 by the addition of 1× cell lysis buffer (Ambion cat #8721). The replicon RNA level was measured using real time PCR (Taqman assay). The amplicon was located in 5B. The PCR primers were: 5B.2F, ATGGACAGGCGCCCTGA (SEQ. ID NO. 1); 5B.2R, […] (SEQ. ID NO. 2); the probe sequence was FAM-labeled CACGCCATGCGCTGCGG (SEQ. ID NO. 3). GAPDH RNA was used as endogenous control and was amplified in the same reaction as NS5B (multiplex PCR) using primers and VIC-labeled probe recommended by the manufacturer (PE Applied Biosystem). The real-time RT-PCR reactions were run on ABI PRISM 7900HT Sequence Detection System using the following program: 48° C. for 30 min, 95° C. for 10 min, 40 cycles of 95° C. for 15 sec, 60° C. for 1 min. The ACT values (CT5B-CTGAPDH) were plotted against the concentration of test compound and fitted to the sigmoid dose-response model using XLfit4 (MDL). EC50 was defined as the concentration of inhibitor necessary to achieve ΔCT=1 over the projected baseline; EC90 the concentration necessary to achieve ΔCT=3.2 over the baseline. Alternatively, to quantitate the absolute amount of replicon RNA, a standard curve was established by including serially diluted T7 transcripts of replicon RNA in the Taqman assay. All Taqman reagents were from PE Applied Biosystems. Such an assay procedure was described in detail in e.g. Malcolm et al., Antimicrobial Agents and Chemotherapy 50: 1013-1020 (2006).
as §1

A further assay has as its system HCV replicon genotype 2a. Description: Cell-based HCV replicon assay, genotype 2a. The settings on record: Hepatitis C virus, 72 h, HCV replicon cells, replicon RNA by real time PCR on day 3, read-out: EC50 (nM) (gt2a). As to the method: as §2, §1
The test system of another assay is HCV replicon genotype 1b. Put plainly: Cell-based HCV replicon assay, genotype 1b. The settings on record: Hepatitis C virus, 72 h, HCV replicon cells, replicon RNA by real time PCR on day 3, read-out: EC50 (nM) (gt1b). The protocol:
as §2, §1

The EC50 is the concentration giving half of the maximal effect.

`COC(=O)N[C@H](C(=O)N1CCC[C@H]1c1ncc(-c2ccc3cc4cc(-c5cnc([C@@H]6CCCN6C(=O)[C@@H](NC(=O)OC)C(C)C)[nH]5)ccc4cc3c2)[nH]1)C(C)C` [Compound 36]: the figures for the EC50 in the assay on HCV replicon genotype 3a, in the assay with HCV replicon genotype 1a and with HCV replicon genotype 2a were 0.01 nM, 0.001 nM and 0.039 nM, respectively.

As for `COC(=O)N[C@H](C(=O)N1CCC[C@H]1c1ncc(-c2ccc3nc4cc(-c5cnc([C@@H]6CCCN6C(=O)[C@@H](NC(=O)OC)C(C)C)[nH]5)ccc4nc3c2)[nH]1)C(C)C` [Compound 38], the half-maximal effective concentration (EC50) in the assay on HCV replicon genotype 1a stood at 0.035 nM; with HCV replicon genotype 1b it was 0.015 nM.

In the case of `COC(=O)N[C@H](C(=O)N1CCC[C@H]1c1ncc(-c2ccc3nc4cc(-c5cnc([C@@H]6CCCN6C(=O)[C@@H](NC(=O)OC)C(C)C)[nH]5)ccc4cc3c2)[nH]1)C(C)C` [Compound 37], the EC50 in the assay with HCV replicon genotype 3a worked out at 0.04 nM; in the assay with HCV replicon genotype 1a it was 0.047 nM; in the assay on HCV replicon genotype 2a, 0.71 nM; in the assay on HCV replicon genotype 1b, 0.001 nM.

Consider `COC(=O)N[C@H](C(=O)N1CCC[C@H]1c1ncc(-c2cc3cc4oc(-c5cnc([C@@H]6CCCN6C(=O)[C@@H](NC(=O)OC)C(C)C)[nH]5)cc4cc3o2)[nH]1)C(C)C` [Compound 39], for which the EC50 in the assay on HCV replicon genotype 1a was 0.02 nM; in the assay with HCV replicon genotype 2a, 0.05 nM; with HCV replicon genotype 1b, 0.001 nM.

Source of the values: patent US9139569B2, “Fused tricyclic aryl compounds useful for the treatment of viral diseases” (Merck Sharp & Dohme Corp., priority 2009, dated 2015).
